Values joined by “and” are separate entries in the source; they are usually repeats but may differ in a detail not shown here. Equal values may be shown once.
Tests used:
L428 cells [1] = assay: L428 xenograft in NSG mice, CD30 immunofluorescence of cytospin slides; assay type: in vivo; parameters: key to Spleen, red pulp activation, diffuse (CD30 staining score per animal) / Liver, Tumour cell infiltration (CD30 staining score per animal) / Bone marrow (CD30 staining score per animal): 0: without any staining; minimal, <1% staining; 2: mild, 1% staining; 3: moderate, <10% staining; marked, 10-40% staining; 5: severe, >40% of cells staining
Excerpt: (§1) Immunodeficient NOD-SCID-gammac−/− (NSG) mice aged 5 to 6 weeks were purchased from Charles River (NOD.Cg-Prkdcscid II2rgtm1Wjl/SzJ). The mice arrived two weeks before the beginning of the experiments and were housed in micro-isolator cages during the entire course of the study. Immediately prior to the injection of Hodgkin lymphoma cells, mice were exposed to 3 Gy gamma irradiation using an IBL637 ^137Cs irradiator at a dose rate of 0.61 Gy/min. From 10^3 to 10^6 cells, either from the original cell lines or following amplification, were injected intravenously via the retro-orbital sinus. The mice were sacrificed by cervical dislocation and different organs were analysed and tumoural infiltration examined using multiple techniques.
Two independent experiments were performed to investigate the dose-effect of EDO-S101 in NSG mice eight weeks after xenografting with L428 cells as in Example 8. The aim of the protocol shown in FIG. […]
(§2) The mice were sacrificed by cervical dislocation. The sampled organs consisted of the eyes (site of injection), liver, spleen and bone marrow. Following dissection of different organs, including tumours, the first portion was used for flow cytometry (FACS) and cytogenetic analyses while the second was fixed in 4% paraformaldehyde (PFA) for immunohistochemistry (IHC). To obtain a single cell suspension, the tissues were first cut into pieces. Thereafter, the cells were physically disaggregated using an 80 μm nylon cell strainer and filtered a second time through a 70 μm nylon cell strainer (BD Biosciences, Erembodegem, Belgium).
Cells were cytospun onto poly-L-lysine-coated glass slides at 700 rpm for 4 min, fixed with 10% formalin for 10 min, and treated with 0.25% Triton X-100 solution for 10 min. After blocking with 5% bovine serum albumin (Sigma), the cells were incubated with an anti-CD30 antibody (DAKO A/S, Glostrup, Denmark). Then, cells were treated with Cyanine 3 anti-mouse IgG (Invitrogen, Carlsbad, CA). As a negative control, staining was carried out in the absence of primary antibody. The L428-s cell line served as positive control.
Individual microscopic findings following immunofluorescence CD30 staining of cytopsin slides: “0”=without any staining; “1”=minimal, <1% staining; “2”=mild, 1% staining; “3”=moderate, <10% staining; “4”=marked, 10-40% staining; “5”=severe, >40% of cells staining.

L1236 = assay: Combination with Brentuximab Vedotin, % survival, L1236; assay type: cell-based, human; conditions: EDO-S101 1.56 μM (sub-IC50) with Brentuximab Vedotin 3.12 μg/ml
Experimental: 1.56 μM of EDO-S101 was administered to two Hodgkin lymphoma cell lines, the bendamustine naïve cell line L1236 and the bendamustine resistant cell line R100. In a second experiment, Brentuximab Vedotin was administered at a concentration of 3.12 μg/ml to the L1236 cell line and at a concentration of 0.39 μg/ml to the R100 cell line. Finally, in a third experiment EDO-S101 and Brentuximab Vedotin were administered in combination to each of the two cell lines at the same concentrations that they were administered in the monotherapy experiments.

[2] = system: Hodgkin lymphoma cell lines (KMH2, HDML2, L540, L1236 and L426); assay: IC50 comparison of bendamustine, vorinostat and EDO-S101, five cell lines; assay type: cell-based, human
Experimental: • (a) Five Hodgkin lymphoma cell lines (KMH2, HDML2, L540, L1236 and L426) were cultured separately in the presence of bendamustine, vorinostat and EDO-S101 dissolved in DMSO at 37° C. L1236-derived Hodgkin lymphoma cell lines were selected as they have an acquired stable resistance to bendamustine (R100) or an ability to display continuous growth upon extended exposure to sub-lethal concentrations of bendamustine (R25, R50 and R75). A detailed description of the L1236-R Hodgkin lymphoma cell lines is disclosed in De Filippi et al, ASH 2015, Abstract. #2479. In these tests, the L1236-100R bendamustine resistant strain was used. […] Control cells were cultured in the same final concentration of DMSO. The number of viable cells was assessed at 24, 48 and 72 hours through a Countess™ automated cell counter (Invitrogen), each experiment being repeated three times and the results given being the mean of the three results±SD.

R100 = assay: ATM/ATR transcripts, R100; assay type: cell-based, human; conditions: bendamustine resistant R100; EDO-S101 alone
L428 cells [3] = assay: L428 xenograft in NSG mice, histopathology (HE staining and CD30 immunohistochemistry); assay type: in vivo; parameters: key to Liver, Tumor cell infiltration, focal/multifocal (score per animal) / Liver, Tumor cell necrosis/Apoptosis (score per animal) / Eye and/or periocular mucosa, periocular tumor cell infiltration, focal/multifocal/diffuse (score per animal) / Tumor/Eye, Tumor cell necrosis/appotosis (score per animal): 0: within physiological limits; 1: minimal; 2: mild; 3: moderate; 4: marked; 5: severe
Excerpt: as §1
Two independent experiments were performed to investigate the dose-effect of EDO-S101 in NSG mice eight weeks after xenografting with L428 cells as in Example 8. The aim of the protocol shown in FIG. 8B was to evaluate the effect of sequential treatment with a moderate dose of 60 mg/kg given at an interval of three weeks.
as §2
Organs were fixed in 4% PFA, trimmed and post-fixed in 70° ethanol. They were then briefly processed using a vacuum inclusion processor and paraffin blocks were prepared. Five micrometer-thick sections were cut from these blocks and the resulting sections were stained with hemotoxylin-eosine (H&E) for histopathological analysis. In addition, IHC was carried out on of the totality of liver and spleen specimens for confirmation of the spread of engrafted cells. The search for single cells or small groups of grafted Hodgkin lymphoma cells was performed using an anti-CD30 antibody (DAKO, France; 1:40, EDTA pH9 pre-treatment) and the Ventana Discovery XT IHC system. Apoptosis and tumour necrosis were analysed.
Microscopic findings were assigned a severity score based upon the following scale: “0”=within physiological limits, “1”=minimal, “2”=mild, “3”=moderate, “4”=marked, “5”=severe. This severity score was attributed according to the size and number of observed lesions.

Cn1c(CCCCCCC(=O)NO)nc2cc(N(CCCl)CCCl)ccc21 [EDO-S101]
Spleen, red pulp activation, diffuse (CD30 staining score per animal) (L428 cells [1]; 1*60 mg/kg): 0 | Liver, Tumour cell infiltration (CD30 staining score per animal) (L428 cells [1]; 1*60 mg/kg, 60 mg/kg): 0 | Liver, Tumour cell infiltration (CD30 staining score per animal) (L428 cells [1]; 1*80 mg/kg): 0 | Spleen, red pulp activation, diffuse (CD30 staining score per animal) (L428 cells [1]; 1*80 mg/kg): 0 | Bone marrow (CD30 staining score per animal) (L428 cells [1]; 2*60 mg/kg, 60 mg/kg): 0 | Liver, Tumour cell infiltration (CD30 staining score per animal) (L428 cells [1]; 2*60 mg/kg, 60 mg/kg): 0 | Spleen, red pulp activation, diffuse (CD30 staining score per animal) (L428 cells [1]; 2*60 mg/kg, 60 mg/kg): 0 | tumour cells in organs (liver, spleen, bone marrow) (L428 cells [1]; single dose of 80 mg/kg): No tumour cells were observed in any organs | cell death in combination with Brentuximab Vedotin (L1236): synergistic | IC50 ([2]; Homo sapiens, range over all cell lines tested, including L1236-R): 1000 to 2000 nM | IC50s relative to bendamustine ([2]; tumour cells of Hodgkin lymphoma): about ten-fold lower than those of bendamustine | ATM/ATR transcripts (R100): correct the constitutive ATM/ATR unbalance by upregulating ATR and downregulating ATM transcripts | tumour masses in liver (L428 cells [3]; 80 mg/kg): No tumour masses were observed in the liver | tumour cell degeneration (necrosis/apoptosis) (L428 cells [3]; 80 mg/kg or 60 mg/kg): No cell necerosis was observed | Eye and/or periocular mucosa, periocular tumor cell infiltration, focal/multifocal/diffuse (score per animal) (L428 cells [3]; 1*60 mg/kg, 60 mg/kg): 5 and 4 (2×) and 3 | Liver, Tumor cell infiltration, focal/multifocal (score per animal) (L428 cells [3]; 1*60 mg/kg, 60 mg/kg): 2 and 1 and 3 | Tumor/Eye, Tumor cell necrosis/appotosis (score per animal) (L428 cells [3]; 1*60 mg/kg, 60 mg/kg): 0 (2×) and 1 (2×) | Eye and/or periocular mucosa, periocular tumor cell infiltration, focal/multifocal/diffuse (score per animal) (L428 cells [3]; 1*80 mg/kg): 5 | Tumor/Eye, Tumor cell necrosis/appotosis (score per animal) (L428 cells [3]; 1*80 mg/kg): 1 | Eye and/or periocular mucosa, periocular tumor cell infiltration, focal/multifocal/diffuse (score per animal) (L428 cells [3]; 2*60 mg/kg): 4 | Liver, Tumor cell necrosis/Apoptosis (score per animal) (L428 cells [3]; 2*60 mg/kg): 0 | Tumor tissue, without connection to other organs (per animal) (L428 cells [3]; 2*60 mg/kg): yes | Liver, Tumor cell infiltration, focal/multifocal (score per animal) (L428 cells [3]; 2*60 mg/kg, 60 mg/kg): 1 (3×) and 0 and 2 | Tumor/Eye, Tumor cell necrosis/appotosis (score per animal) (L428 cells [3]; 2*60 mg/kg, 60 mg/kg): 4 and 2 (2×) | tumour regression (L428 cells [3]; single dose of 60 mg/kg): significant tumour regression | severity of tumoural cell infiltration (L428 cells [3]; single injection 60 or 80 mg/kg, or two injections of 60 mg/kg three weeks apart): significant decrease in the severity of tumoural cell infiltration | tumour regression (L428 cells [3]; two administrations of 60 mg/kg three weeks apart, versus control and single 60 mg/kg): Significant tumour regression

Source: patent US12440475B2, “Hodgkin lymphoma therapy” (priority 2016, dated 2025)
